Source: ChEMBL document CHEMBL3580555, “Design, Synthesis, and Biological Evaluation of Novel Imidazo[1,2-a]pyridine Derivatives as Potent c-Met Inhibitors” (ACS Med Chem Lett, 2015)

Columns and labels:
[1] = Antiproliferative activity against human EBC1 cells after 72 hrs; conditions: EBC-1, 72 h
[2] = molecular target: Hepatocyte growth factor receptor (Homo sapiens) (UniProt P08581); assay: Inhibition of C-Met (unknown origin) using polu (Glu,Tyr)4:1 substrate at 1 uM after 30 mins incubation by multi-well spectrophotometry
[3] = molecular target: Hepatocyte growth factor receptor (Homo sapiens) (UniProt P08581); assay: Inhibition of C-Met (unknown origin) using polu (Glu,Tyr)4:1 substrate at 100 uM after 30 mins incubation by multi-well spectrophotometry
Liver microsome [4] = assay: Drug formation in beagle dog liver microsomes treated with 2-Fluoro-4-(8-fluoro-3-(quinolin-6-ylmethyl)imidazo[1,2-a]pyridin-6-yl)-N-methylbenzamide after 60 mins by UPLC/Q-TOF MS/MS analysis; assay type: ADME, Canis lupus familiaris; conditions: 1 h
Liver microsome [5] = assay: Drug formation in human liver microsomes treated with 2-Fluoro-4-(8-fluoro-3-(quinolin-6-ylmethyl)imidazo[1,2-a]pyridin-6-yl)-N-methylbenzamide after 60 mins by UPLC/Q-TOF MS/MS analysis; assay type: ADME; conditions: 1 h
Liver = assay: Drug formation in CD1 mouse liver microsomes treated with 2-Fluoro-4-(8-fluoro-3-(quinolin-6-ylmethyl)imidazo[1,2-a]pyridin-6-yl)-N-methylbenzamide after 60 mins by UPLC/Q-TOF MS/MS analysis; assay type: ADME; conditions: 1 h
[6] = Drug formation in monkey liver microsomes treated with 2-Fluoro-4-(8-fluoro-3-(quinolin-6-ylmethyl)imidazo[1,2-a]pyridin-6-yl)-N-methylbenzamide after 60 mins by UPLC/Q-TOF MS/MS analysis; assay type: ADME, Macaca mulatta; conditions: rhesus monkey, 1 h
[7] = Antiproliferative activity against human MKN45 cells after 72 hrs; assay type: functional, cell-based; conditions: MKN-45, 72 h
BaF3 = assay: Antiproliferative activity against mouse BAF3/TPR-Met cells after 72 hrs; assay type: functional, cell-based; conditions: BaF3, 72 h
[8] = Antiproliferative activity against human SNU5 cells after 72 hrs; assay type: functional, cell-based; conditions: SNU-5, 72 h

Sequence of Hepatocyte growth factor receptor (Homo sapiens) (P08581 whole entry): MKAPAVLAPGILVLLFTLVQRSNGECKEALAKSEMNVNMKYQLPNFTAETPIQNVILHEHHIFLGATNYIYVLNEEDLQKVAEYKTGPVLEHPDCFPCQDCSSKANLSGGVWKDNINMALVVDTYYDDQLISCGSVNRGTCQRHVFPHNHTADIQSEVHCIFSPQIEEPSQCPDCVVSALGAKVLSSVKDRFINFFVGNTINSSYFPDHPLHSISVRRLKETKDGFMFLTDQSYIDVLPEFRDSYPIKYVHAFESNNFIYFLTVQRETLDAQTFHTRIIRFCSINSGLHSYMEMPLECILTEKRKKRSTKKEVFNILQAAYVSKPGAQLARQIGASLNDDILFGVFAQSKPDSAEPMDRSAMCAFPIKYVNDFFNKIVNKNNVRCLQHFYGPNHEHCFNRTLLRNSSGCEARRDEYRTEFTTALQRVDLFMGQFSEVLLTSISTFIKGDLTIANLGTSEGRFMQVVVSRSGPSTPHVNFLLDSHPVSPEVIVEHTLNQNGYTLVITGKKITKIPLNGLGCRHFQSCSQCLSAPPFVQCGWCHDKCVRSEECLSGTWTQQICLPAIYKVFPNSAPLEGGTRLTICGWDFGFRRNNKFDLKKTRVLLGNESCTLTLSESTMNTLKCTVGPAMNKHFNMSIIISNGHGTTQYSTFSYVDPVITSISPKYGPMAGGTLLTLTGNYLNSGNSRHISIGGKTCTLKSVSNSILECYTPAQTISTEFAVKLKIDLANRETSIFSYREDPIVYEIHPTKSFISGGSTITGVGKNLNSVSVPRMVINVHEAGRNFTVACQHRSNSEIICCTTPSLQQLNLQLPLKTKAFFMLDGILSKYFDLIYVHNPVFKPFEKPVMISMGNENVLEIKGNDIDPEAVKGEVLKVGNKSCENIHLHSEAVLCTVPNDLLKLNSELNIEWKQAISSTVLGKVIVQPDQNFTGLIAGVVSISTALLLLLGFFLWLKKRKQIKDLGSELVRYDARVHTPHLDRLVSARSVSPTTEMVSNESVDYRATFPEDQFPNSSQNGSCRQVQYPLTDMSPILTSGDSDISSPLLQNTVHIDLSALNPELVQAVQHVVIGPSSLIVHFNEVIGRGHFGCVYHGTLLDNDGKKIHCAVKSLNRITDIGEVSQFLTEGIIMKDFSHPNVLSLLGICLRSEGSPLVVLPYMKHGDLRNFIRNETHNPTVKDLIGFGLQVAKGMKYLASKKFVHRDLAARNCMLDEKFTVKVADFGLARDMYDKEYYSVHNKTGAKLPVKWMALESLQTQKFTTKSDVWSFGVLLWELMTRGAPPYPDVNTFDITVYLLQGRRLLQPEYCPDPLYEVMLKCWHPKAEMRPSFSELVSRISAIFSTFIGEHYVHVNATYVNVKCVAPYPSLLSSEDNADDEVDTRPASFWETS

SMILES	IC50 [1] [nM]	further results
COc1ccc(-c2cc(F)c3ncc(Cc4ccc5ncccc5c4)n3c2)cc1F	407	–
CN1CCN(C(=O)c2ccc(-c3cc(F)c4ncc(Cc5ccc6ncccc6c5)n4c3)cc2F)CC1	869	–
Cn1cc(-c2cn3c(Cc4ccc5ncccc5c4)cnc3cc2Cl)cn1	–	inhibition [2]: 24.5%
O=C(NCc1ccccn1)c1ccc(-c2cc(F)c3ncc(Cc4ccc5ncccc5c4)n3c2)cc1F	5550	–
O=C(NC1CCCNC1)c1ccc(-c2cc(F)c3ncc(Cc4ccc5ncccc5c4)n3c2)cc1F (centres undefined)	138	–
Cn1cc(-c2cn3c(Cc4ccc5ncccc5c4)cnc3cc2C(F)(F)F)cn1	–	inhibition [2]: 5.9%
CNC(=O)c1ccc(-c2cc(F)c3ncc(Cc4ccc5ncccc5c4)n3c2)cc1OC	59.6	–
N#Cc1cccc(-c2cc(F)c3ncc(Cc4ccc5ncccc5c4)n3c2)c1	107	–
OCCn1cc(-c2cc(F)c3ncc(Cc4ccc5ncccc5c4)n3c2)cn1	340	–
Cn1cc(-c2cn3c(Cc4ccc5ncccc5c4)cnc3cc2C#N)cn1	–	inhibition [3]: 33.3%
O=C(NCCN1CCOCC1)c1ccc(-c2cc(F)c3ncc(Cc4ccc5ncccc5c4)n3c2)cc1F	52	–
CNC(=O)c1ccc(-c2cc(F)c3ncc(C(O)c4ccc5ncccc5c4)n3c2)cc1F (centres undefined)	3020	Drug metabolism (Liver microsome [4]): metabolite_detected; Drug metabolism (Liver microsome [5]): metabolite_detected; Drug metabolism (Liver): metabolite_detected; Drug metabolism [6]: metabolite_detected
CCO/N=C(\C)c1cc(F)c2ncc(Cc3ccc4ncccc4c3)n2c1	1480	–
Fc1cc(-c2ccsc2)cn2c(Cc3ccc4ncccc4c3)cnc12	444	–
Cn1cc(-c2ccc3nnc(C(F)(F)c4ccc5ncccc5c4)n3n2)cn1 [JNJ-38877605]	9.5	IC50 [7]: 10.9 nM; IC50 (BaF3): 17.6 nM; IC50 [8]: 15.8 nM
Fc1cc(F)cc(-c2cc(F)c3ncc(Cc4ccc5ncccc5c4)n3c2)c1	790	–
Fc1cc(-c2cnn(C3CCNCC3)c2)cn2c(Cc3ccc4ncccc4c3)cnc12	1460	–
